Measured values from PMC8348110, “A Novel Peptide Derived from the Transmembrane Domain of Romo1 Is a Promising Candidate for Sepsis Treatment and Multidrug-Resistant Bacteria” (International Journal of Molecular Sciences, 2021).
In brackets after ≈: the same amount, converted by molar mass. Residues, ends and D or L forms follow the SMILES beside them.

Key:
[1] = system: Pseudomonas aeruginosa ATCC 27853; format: cell-based; details: ATCC 27853, 1 h
Procedure: (§1) The minimum bactericidal concentration (MBC) was determined as previously described with minor modifications. Briefly, bacteria were cultured in the mid-log phase and diluted to 5 × 10^5 colony-forming unit (CFU)/mL in 10 mM sodium phosphate buffer (pH 7.4) with a 1% volume of TS broth. They were incubated for 1 h with various peptides which were two-fold diluted serially from 64 μg/mL to 0 μg/mL concentrations in a 96-well plate. The samples were inoculated TS agar plate and incubated overnight at 37 °C. The value of MBC was determined at the lowest concentrations at which no colonies were identified.
(§2) We used the CFU counting method to measure antibacterial activity, with all bacteria cultured to the mid-log phase in an appropriate broth medium. Bacterial CFUs were counted after overnight culture at 37 °C on TS or LB agar plates. The MBC value and antibacterial activity in blood components were determined as previously described. Mouse and human whole blood were collected and diluted with PBS (pH 7.4) to measure the ex vivo antibacterial activity of AMPR-22. For that test, AMPR-22 (10 μg) was added to each whole blood solution and incubated at 37 °C with shaking at 200 rpm. At each time point, it was incubated with bacteria (1 × 10^3 CFU) for 30 min. Each sample was inoculated on an LB agar plate, and CFU counting was performed. To measure the in vivo activity of AMPR-22, 1 × 10^8 CFU of bacteria were injected into BALB/c mice, and an hour later, 10 mg/kg of the test peptides were injected. Blood samples were collected by tail cut, serially diluted with PBS (pH 7.4), and inoculated on LB-agar plates, followed by CFU counting. To estimate the functional half-life of AMPR-22, 40 mg/kg of each tested peptide were injected into mice. Whole blood sampling was performed by cardiac puncture, and the plasma was isolated by centrifugation (2000× g, 15 min). The isolated plasma was incubated with bacteria (1 × 10^3 CFU) for an hour, and then the CFU counting method was performed.

[2] = system: Staphylococcus aureus ATCC 29213; format: cell-based; details: ATCC 29213, 1 h, pH 7.4
Procedure: as §1, §2

[3] = system: Methicillin-resistant S. aureus (MRSA) ATCC 33591; format: cell-based, Staphylococcus aureus; details: ATCC 33591, 1 h
Procedure: as §1, §2

[4] = system: Carbapenem-resistant P. aeruginosa (CRPA), clinical isolate; format: cell-based, Pseudomonas aeruginosa; details: 1 h
Description: Acinetobacter baumannii (ATCC 19606), B. subtilis (ATCC 6633), E. aerogenes (ATCC 13048), E. coli (ATCC 25922), E. faecalis (ATCC 19433), E. faecium (ATCC 19434), K. pneumoniae (ATCC 13883), P. aeruginosa (ATCC 27853), S. aureus (ATCC 29213), S. sindenensis (ATCC 23963), and MRSA (ATCC 33591) were purchased from the American Type Culture Collection (ATCC; Gaithersburg, MD, USA). Streptococcus pneumoniae (NCCP 14585), vancomycin-resistant E. faecium (NCCP 11522), and vancomycin-resistant S. aureus (NCCP 15872) were purchased from the National Culture Collection for Pathogens (NCCP; Cheongju, Korea). The isolation and use of carbapenem-resistant bacterial strains from a patient were approved (2015AN0129) by the Institutional Review Board (IRB) of Korea University Hospital. CRPA, CRKP, and CRAB were clinically isolated in Korea University Hospital (Seoul, Korea). CRPA was confirmed to be resistant to piperacillin, piperacillin-tazobactam, ceftazidime, imipenem, meropenem, gentamicin, amikacin, and ciprofloxacin. CRAB was confirmed to be resistant to piperacillin, piperacillin-tazobactam, cefepime, ceftazidime, imipenem, meropenem, gentamicin, amikacin, and ciprofloxacin. CRKP was confirmed to be resistant to piperacillin-tazobactam, cefepime, ceftazidime, imipenem, gentamicin, and ciprofloxacin. All strains were stored at –80 °C in 50% glycerol and 50% Luria-Bertani (LB) or tryptic soy (TS) broth, grown on LB or TS plates, and aerated at 37 °C.
as §1, §2

| Structure (SMILES) | MBC Value, P. aeruginosa [1] [µg/mL] | MBC Value, S. aureus [2] [µg/mL] | MBC Value, MRSA [3] [µg/mL] | MBC Value, CRPA [4] [µg/mL] |
| --- | --- | --- | --- | --- |
| CC[C@H](C)[C@H](NC(=O)CNC(=O)[C@H](CCSC)NC(=O)CNC(=O)[C@@H](NC(=O)[C@H](C)NC(=O)[C@H](CCSC)NC(=O)[C@H](Cc1ccccc1)NC(=O)[C@@H](NC(=O)CNC(=O)[C@H](Cc1ccccc1)NC(=O)[C@@H](NC(=O)CNC(=O)CNC(=O)[C@H](CO)NC(=O)[C@H](CCCCN)NC(=O)[C@H](CCSC)NC(=O)[C@H](CCSC)NC(=O)[C@H](CCCCN)NC(=O)[C@@H](N)CCCCN)[C@@H](C)O)[C@@H](C)O)[C@@H](C)CC)C(=O)N[C@@H](CCCNC(=N)N)C(=O)O [K2] (H-KKMMKSGGTFGTFMAIGMGIR-OH) | 16 (≈ 7.11 µM) | 32 (≈ 14.2 µM) | 64 (≈ 28.4 µM) | 16 (≈ 7.11 µM) |
| CC[C@H](C)[C@H](NC(=O)CNC(=O)[C@H](CCSC)NC(=O)CNC(=O)[C@@H](NC(=O)[C@H](C)NC(=O)[C@H](CCSC)NC(=O)[C@H](Cc1ccccc1)NC(=O)[C@@H](NC(=O)CNC(=O)[C@H](Cc1ccccc1)NC(=O)[C@H](CCCCN)NC(=O)CNC(=O)CNC(=O)[C@H](CCCCN)NC(=O)[C@H](CCCCN)NC(=O)[C@H](CCSC)NC(=O)[C@H](CCSC)NC(=O)[C@@H](N)CCCCN)[C@@H](C)O)[C@@H](C)CC)C(=O)N[C@@H](CCCNC(=N)N)C(=O)O [d58K] (H-KMMKKGGKFGTFMAIGMGIR-OH) | 2 (≈ 0.913 µM) | 8 (≈ 3.65 µM) | 2 (≈ 0.913 µM) | 8 (≈ 3.65 µM) |
| CC[C@H](C)[C@H](NC(=O)CNC(=O)[C@H](CCSC)NC(=O)CNC(=O)[C@H](C)NC(=O)[C@H](CCSC)NC(=O)[C@H](Cc1ccccc1)NC(=O)[C@@H](NC(=O)CNC(=O)[C@H](Cc1ccccc1)NC(=O)[C@H](CCCCN)NC(=O)CNC(=O)CNC(=O)[C@H](CCCCN)NC(=O)[C@H](CCCCN)NC(=O)[C@H](CCSC)NC(=O)[C@H](CCSC)NC(=O)[C@H](CCCCN)NC(=O)[C@@H](N)CCCCN)[C@@H](C)O)C(=O)N[C@@H](CCCNC(=N)N)C(=O)O [d73I] (H-KKMMKKGGKFGTFMAGMGIR-OH) | >256 | – | >256 | >256 |
| CC[C@H](C)[C@H](NC(=O)CNC(=O)[C@H](CCSC)NC(=O)CNC(=O)[C@@H](NC(=O)[C@H](C)NC(=O)[C@H](CCSC)NC(=O)[C@H](Cc1ccccc1)NC(=O)[C@@H](NC(=O)CNC(=O)[C@H](Cc1ccccc1)NC(=O)[C@H](CCCCN)NC(=O)CNC(=O)[C@H](CCCCN)NC(=O)[C@H](CCCCN)NC(=O)[C@H](CCSC)NC(=O)[C@H](CCSC)NC(=O)[C@H](CCCCN)NC(=O)[C@@H](N)CCCCN)[C@@H](C)O)[C@@H](C)CC)C(=O)N[C@@H](CCCNC(=N)N)C(=O)O [d64G] (H-KKMMKKGKFGTFMAIGMGIR-OH) | 2 (≈ 0.885 µM) | 2 (≈ 0.885 µM) | 1 (≈ 0.442 µM) | 4 (≈ 1.77 µM) |
| CC[C@H](C)[C@H](NC(=O)[C@H](C)NC(=O)[C@H](CCSC)NC(=O)[C@H](Cc1ccccc1)NC(=O)[C@@H](NC(=O)CNC(=O)[C@H](Cc1ccccc1)NC(=O)[C@H](CCCCN)NC(=O)CNC(=O)CNC(=O)[C@H](CCCCN)NC(=O)[C@H](CCCCN)NC(=O)[C@H](CCSC)NC(=O)[C@H](CCSC)NC(=O)[C@H](CCCCN)NC(=O)[C@@H](N)CCCCN)[C@@H](C)O)C(=O)NCC(=O)N[C@@H](CCSC)C(=O)NCC(=O)N[C@@H](CCCNC(=N)N)C(=O)O [d77I] (H-KKMMKKGGKFGTFMAIGMGR-OH) | 4 (≈ 1.81 µM) | 8 (≈ 3.63 µM) | 4 (≈ 1.81 µM) | 8 (≈ 3.63 µM) |
| CC[C@H](C)[C@H](NC(=O)CNC(=O)[C@H](CCSC)NC(=O)CNC(=O)[C@@H](NC(=O)[C@H](C)NC(=O)[C@H](CCSC)NC(=O)[C@H](Cc1ccccc1)NC(=O)[C@@H](NC(=O)CNC(=O)[C@H](Cc1ccccc1)NC(=O)[C@@H](NC(=O)CNC(=O)CNC(=O)[C@H](CCCCN)NC(=O)[C@H](CCCCN)NC(=O)[C@H](CCSC)NC(=O)[C@H](CCSC)NC(=O)[C@H](CCCCN)NC(=O)[C@@H](N)CCCCN)[C@@H](C)O)[C@@H](C)O)[C@@H](C)CC)C(=O)N[C@@H](CCCNC(=N)N)C(=O)O [K3] (H-KKMMKKGGTFGTFMAIGMGIR-OH) | 8 (≈ 3.49 µM) | 16 (≈ 6.98 µM) | 32 (≈ 14 µM) | 8 (≈ 3.49 µM) |
| CC[C@H](C)[C@H](NC(=O)[C@H](C)NC(=O)[C@H](CCSC)NC(=O)[C@H](Cc1ccccc1)NC(=O)[C@@H](NC(=O)CNC(=O)[C@H](Cc1ccccc1)NC(=O)[C@H](CCCCN)NC(=O)CNC(=O)CNC(=O)[C@H](CCCCN)NC(=O)[C@H](CCCCN)NC(=O)[C@H](CCSC)NC(=O)[C@H](CCSC)NC(=O)[C@H](CCCCN)NC(=O)[C@@H](N)CCCCN)[C@@H](C)O)C(=O)NCC(=O)N[C@@H](CCSC)C(=O)N[C@H](C(=O)N[C@@H](CCCNC(=N)N)C(=O)O)[C@@H](C)CC [d76G] (H-KKMMKKGGKFGTFMAIGMIR-OH) | 4 (≈ 1.77 µM) | 4 (≈ 1.77 µM) | 4 (≈ 1.77 µM) | 4 (≈ 1.77 µM) |
| CC[C@H](C)[C@H](NC(=O)CNC(=O)[C@H](CCSC)NC(=O)CNC(=O)[C@@H](NC(=O)[C@H](C)NC(=O)[C@H](CCSC)NC(=O)[C@H](Cc1ccccc1)NC(=O)[C@@H](NC(=O)CNC(=O)[C@H](Cc1ccccc1)NC(=O)[C@H](CCCCN)NC(=O)CNC(=O)CNC(=O)[C@H](CCCCN)NC(=O)[C@H](CCSC)NC(=O)[C@H](CCSC)NC(=O)[C@H](CCCCN)NC(=O)[C@@H](N)CCCCN)[C@@H](C)O)[C@@H](C)CC)C(=O)N[C@@H](CCCNC(=N)N)C(=O)O [d62K] (H-KKMMKGGKFGTFMAIGMGIR-OH) | 2 (≈ 0.913 µM) | 8 (≈ 3.65 µM) | 8 (≈ 3.65 µM) | 8 (≈ 3.65 µM) |
| CC[C@H](C)[C@H](NC(=O)CNC(=O)[C@H](CCSC)NC(=O)CNC(=O)[C@@H](NC(=O)[C@H](C)NC(=O)[C@H](CCSC)NC(=O)[C@H](Cc1ccccc1)NC(=O)[C@@H](NC(=O)[C@H](Cc1ccccc1)NC(=O)[C@H](CCCCN)NC(=O)CNC(=O)CNC(=O)[C@H](CCCCN)NC(=O)[C@H](CCCCN)NC(=O)[C@H](CCSC)NC(=O)[C@H](CCSC)NC(=O)[C@H](CCCCN)NC(=O)[C@@H](N)CCCCN)[C@@H](C)O)[C@@H](C)CC)C(=O)N[C@@H](CCCNC(=N)N)C(=O)O [d68G] (H-KKMMKKGGKFTFMAIGMGIR-OH) | 4 (≈ 1.77 µM) | 4 (≈ 1.77 µM) | 4 (≈ 1.77 µM) | 8 (≈ 3.54 µM) |
| CC[C@H](C)[C@H](NC(=O)CNC(=O)[C@H](CCSC)NC(=O)CNC(=O)[C@@H](NC(=O)[C@H](C)NC(=O)[C@H](CCSC)NC(=O)[C@@H](NC(=O)CNC(=O)[C@H](Cc1ccccc1)NC(=O)[C@H](CCCCN)NC(=O)CNC(=O)CNC(=O)[C@H](CCCCN)NC(=O)[C@H](CCCCN)NC(=O)[C@H](CCSC)NC(=O)[C@H](CCSC)NC(=O)[C@H](CCCCN)NC(=O)[C@@H](N)CCCCN)[C@@H](C)O)[C@@H](C)CC)C(=O)N[C@@H](CCCNC(=N)N)C(=O)O [d70F] (H-KKMMKKGGKFGTMAIGMGIR-OH) | 128 (≈ 59 µM) | – | 128 (≈ 59 µM) | >256 |
